Experimental data published in patent US12458702B2 (NATIONAL TAIWAN UNIVERSITY, priority 2022, dated 2025).
Entries after “also recorded” stand apart in the source; their conditions may differ. Like-named read-outs stand apart in the source and are kept apart here.

How the values were obtained:
HT-29 = experiment: Cytotoxicity by SRB assay in HT-29 cells
Procedure: Cancer cell lines were obtained from ATCC unless otherwise noted. HT-29 and HCT-116 cells were cultured in Dulbecco's Modified Eagle Medium (DMEM, Thermo Fisher Scientific) with 10% fetal bovine serum (FBS, Thermo Fisher Scientific) and 1% antibiotic-antimycotic (Thermo Fisher Scientific).
Briefly, CRC cells were seeded at a density of 5×10^3 cells/well in 96-well microtiter plates (100 μL/well), separated into two groups with or without GSH. After incubation for 24 hours, the culture medium was replaced by fresh medium (100 μL). […] After incubation, 10% cold trichloroacetic acid was gently added to each well and incubated at 4° C. for 1 h. The medium was removed, carefully washed with water, and dried at room temperature. […] The optical density (O.D.) was measured at 510 nm with Multi-Mode Microplate Reader (SpectraMax Paradigm, Beckman Coulter, U.S.). The fraction of cell survival was calculated as follows. Survival fraction=(OD treated−blank)/(OD control−blank). […] Each experiment was repeated three times.

HCT-116 = experiment: Cytotoxicity by SRB assay in HCT-116 cells; format: cell-based, human
Procedure: (§1) The fraction of cell survival was calculated as follows. Survival fraction=(OD treated−blank)/(OD control−blank). […] Each experiment was repeated three times.

[1] = Stability and drug release in GSH (RP-HPLC); format: in vitro ADME
Procedure: […] After incubation for the indicated time, samples were centrifuged to collect the clear supernatant and stored at −30° C. until analysis. RP-HPLC injections were carried out at the specified conditions, and the area of peak was integrated for further calculation.

[2] = system: orthotopic CRC mice model; experiment: Orthotopic AOM/DSS-induced CRC mice model, tumor area; format: in vivo, BALB/c mice
Procedure: Azoxymethane (AOM)-induced murine CRC model was applied to model human CRC. BALB/c mice (6 weeks of age, male) were intraperitoneally (i.p.) injected once every two weeks with AOM (10 mg/kg body weight) or the PBS vehicle. Seven days after each AOM injection, 2% dextran sulfate sodium (DSS) was given in the drinking water for four days, followed by 3 days of regular water. This cycle was repeated three times. The mice were randomly divided into eight groups (n=5), on day 60 after the first AOM treatment. […] Tumor volumes and body weights were recorded at sacrifice. The tumors were counted under a dissecting microscope, and the area covered by tumors was measured by imaging software (AxioVision LE 4.8.2.0).

[3] = Human plasma stability (RP-HPLC); format: in vitro ADME; settings: 95% human plasma, 37° C.
Procedure: To access human plasma stability, synthesized conjugates were prepared in 95% human plasma. […] The mixture was centrifuged at 13,000 rpm for 5 min. […] For compounds 30 and 31, they were dissolved in DMA and added GSH (11.2 mM or 11.2 μM) solution which was prepared in sodium acetate buffer (10 mM, pH 5.0) in the ratio of 50/40 (v/v, drug in DMA/GSH solution) for final GSH of 5 mM or 5 μM in pH 7.0, respectively. After incubation for the indicated time, samples were centrifuged to collect the clear supernatant and stored at −30° C. until analysis. RP-HPLC injections were carried out at the specified conditions, and the area of peak was integrated for further calculation.

[4] = Body weight changes in the CRC mice model; format: in vivo, BALB/c mice; settings: for body weight change, in words: during treatment in CRC mice model
Procedure: Azoxymethane (AOM)-induced murine CRC model was applied to model human CRC. BALB/c mice (6 weeks of age, male) were intraperitoneally (i.p.) injected once every two weeks with AOM (10 mg/kg body weight) or the PBS vehicle. Seven days after each AOM injection, 2% dextran sulfate sodium (DSS) was given in the drinking water for four days, followed by 3 days of regular water. This cycle was repeated three times. The mice were randomly divided into eight groups (n=5), on day 60 after the first AOM treatment. […] Irinotecan (20 mg/kg), compound 31 (20 mg/kg), and irinotecan+compound 17 (20 mg/kg of irinotecan and 14 mg/kg of compound 17) were injected i.p. q.o.d for two weeks. […] Tumor volumes and body weights were recorded at sacrifice. The tumors were counted under a dissecting microscope, and the area covered by tumors was measured by imaging software (AxioVision LE 4.8.2.0).

[5] = system: CRC cell lines HCT-116 and HT-29; experiment: Cytotoxicity against CRC cell lines, summary over both lines (SRB assay); format: cell-based, human; settings: for cytotoxicity against CRC cell lines, in words: HCT-116 and HT-29, with or without GSH
Procedure: as §1

NHDF = experiment: Cytotoxicity by SRB assay in low GLUT-1 normal cell line NHDF; format: cell-based; settings: Homo sapiens, low expression GLUT-1 normal cell line
Procedure: as §1

[6] = Plasma pharmacokinetics in mice (UPLC-MS/MS); format: in vivo, BALB/c mice; settings: for T. of 5-FU: 5-FU measured in plasma
Procedure: (§2) In the following PK experiments, BALB/c mice (six weeks of age, male) were randomly divided into two groups (n=3). […] Blood samples were collected via femoral vein by syringes at 0, 1, 3, 5, 10, 15, 30, 45 min, 1, 2, 4, and 24 h after drug administration. 50 μL blood samples were collected into 100 μL extraction solvent (EtOAc/MeOH=1:1) and vortex for 30 sec. The supernatants were separated from the mixture by centrifugation at 10,000 rpm for 10 min and frozen at −30° C. pending UPLC-MS/MS analysis. For bio-distribution experiments, the entire dissected organs were placed into round-bottom after weighting, two-milliliter microcentrifuge tubes with 1 mL of extraction solvent (EtOAc/MeOH=1:1) and 7 mm stainless steel beads, then homogenized for 30 min. All of the containers were maintained at 4° C. throughout the process. The supernatants were separated from the mixture by centrifugation at 10,000 rpm for 10 min and frozen at −30° C. The 200 μL solvent from crude organ suspensions was removed by the dryer and then dissolved in 50 μL extraction solvent. All samples were stored at −30° C. and analyzed within 24 h. All of the samples were filtered through 0.22 μm PTFE membranes into 12×32 mm vials for UPLC-MS/MS analyses using 5-FU-^15N2 as a marker. Pharmacokinetic parameters were calculated using the WinNonlin Software (version 5.2, Pharsight, MO, USA.)
(§3) Analyses were performed on an ACQUITY UPLC I-Class/Xevo TQ-XS IVD System (Waters, Milford, MA, USA) from College of Public Health, National Taiwan University. The reverse phase BEH C18 (100 mm×2.1 mm, 1.7 μm, Waters) and VanGuard BEH C18 (5 mm×2.1 mm, 1.7 μm, Waters) precolumns were used to separate the analytes. All data were acquired by MassLynx V4.2. The mobile phase consisted of a 10 mM aqueous solution of ammonium acetate (A) and acetonitrile (B), set as follows: 0.00 min 98% A→1.00 min 98% A→3.00 min 10% A→4.50 min 10% A→4.60 min 98% A→6.00 min 98% A; at a rate of 0.5 mL/min for 6.00 min with 4 μL per injection. The column oven was maintained at 60° C. Multiple reaction monitoring (MRM) method was applied in quantification. Mass spectrometer parameters were as follows: capillary voltage, 3.0 kV/3.0 kV, respectively, for positive/negative ion mode; ion source temperature, 120° C.; desolvation temperature, 450° C.; cone gas flow (N2), 50 L/h; desolvation gas flow (N2), 700 L/h; multiplier, 650 V; and collision gas pressure (Ar), 3−4×10^−3 mbar.

[7] = Organ biodistribution in mice (UPLC-MS/MS); format: in vivo, BALB/c mice; settings: 1 hour post i.p. injection; for organ distribution of 5-FU, in words: compound 7 50 mg/kg, free 5-FU 9.5 mg/kg
Procedure: as §2
as §3, with “Mass spectrometer parameters were as follows: capillary voltage, 3.0 kV/3.0 kV, respectively, for positive/negative ion mode; ion source temperature, 120° C.; desolvation temperature, 450° C.; cone gas flow (N2), 50 L/h; desolvation gas flow (N2), 700 L/h; multiplier, 650 V; and collision gas pressure (Ar), 3−4×10^−3 mbar.” left out

[8] = system: metastatic colorectal cancer; settings: cited from earlier work
pH stability analysis = format: physicochemical
[9] = Homo sapiens, HT-29, 48 h, read-out: IC50 HT-29 5 mM GSH
[10] = Homo sapiens, HT-29, 48 h, read-out: IC50 HT-29 w/o GSH
[11] = Homo sapiens, HCT-116, 48 h, w/o GSH, read-out: IC50 HCT-116 w/o GSH
[12] = 5-FU series, 50 mg/kg i.p. once every 3 days for 3 weeks

CCc1c2c(nc3ccc(OC(=O)OCCSSCCOCCOCCOc4ccc(O)c(C(=O)CCc5ccc(O)cc5)c4O)cc13)-c1cc3c(c(=O)n1C2)COC(=O)[C@]3(O)CC [Compound 31, (S)-4,11-diethyl-4-hydroxy-3,14-dioxo-3,4,12,14-tetrahydro-1H-pyrano[3′,4′:6,7]indolizino[1,2-b]quinolin-9-yl(2-((2-(2-(2-(2,4-dihydroxy-3-(3-(4-hydroxyphenyl)propanoyl)phenoxy)ethoxy)eyhoxy)ethyl)disulfanyl)ethyl) carbonate]
IC50 (HT-29; read-out: IC50 HT-29 5 mM GSH, 48 h, prepared in DMA, 5 mM GSH): 0.0114 ± 0.00103 µM | IC50 (HT-29; read-out: IC50 HT-29 w/o GSH, 48 h, prepared in DMA, w/o GSH): 0.0163 ± 0.00131 µM | IC50 (HCT-116; 72 h, prepared in DMA, w/o GSH, read-out: IC50 HCT-116 w/o GSH): 0.00287 ± 0.00019 µM | IC50 (HCT-116; read-out: IC50 HCT-116 5 mM GSH, 72 h, prepared in DMA, 5 mM GSH): 0.00259 ± 0.00012 µM | degraded after 48 h ([1]; 0 and 5 μM GSH, 48 h): 10% | degraded to SN-38 after 48 h ([1]; 5 mM GSH, 48 h): over 90% | reduction of tumor volume ([2]; SN-38 series, 20 mg/kg i.p. once every two days for two weeks): 70% | anti-tumor efficacy (tumor area), in words ([2]; SN-38 series, i.p. once every two days for two weeks, 20 mg/kg, irinotecan 20 mg/kg + compound 17 14 mg/kg): better anti-tumor efficacy than irinotecan | half-life in human plasma [3]: 0.833 h | body weight change, in words [4]: did not decrease the body weight; also recorded: no significant change in the body weight | cytotoxicity against CRC cell lines, in words [5]: less or similar cytotoxicity

O=C(CCCSSCCOCCOCCOc1cc(O)c(C(=O)CCc2ccc(O)cc2)c(O)c1)OCn1cc(F)c(=O)[nH]c1=O [Compound 7, (5-Fluoro-2,4-dioxo-3,4-dihydropyrimidin-1(2H)-yl)methyl 4-((2-(2-(2-(3,5-dihydroxy-4-(3-(4-hydroxyphenyl)propanoyl)phenoxy)ethoxy)ethoxy)ethyl)disulfanyl)butanoate]
IC50 (HT-29; [9]): 3.8 µM | IC50 (HT-29; [10]): 19.6 ± 3.86 µM | IC50 (HCT-116; Homo sapiens, HCT-116, read-out: IC50 HCT-116 5 mM GSH, 48 h, 5 mM GSH): 10.5 µM | IC50 (HCT-116; [11]): 21.2 ± 1.69 µM | IC50 (NHDF): 90 ± 2.6 µM | degradation after 48 h ([1]; 5 μM GSH, 48 h): 30% | cleavage percentage after 4 hours ([1]; 1 mM GSH): ~10% | cleavage percentage after 4 hours ([1]; 5 mM GSH): up to 60% | half-life at 2.5 mM ([1]; PBS containing 1 mM GSH, pH 7.4, half-life at 1 mM GSH, 1 mM GSH, PBS pH 7.4): 10.3 h | half-life at 2.5 mM ([1]; PBS containing GSH, pH 7.4, highly reductive environments, read-out: half-lives in highly reductive environments): < 5 h | reduction of tumor volume [2, 12]: 67% | tumor suppression (tumor area), in words ([2]; 5-FU series, i.p. once every three days for three weeks, compound 7 and 5-FU 50 mg/kg, 5-FU 10 mg/kg + compound 17 30 mg/kg): better tumor suppression than 5-FU | half-life in human plasma [3]: 13 h | body weight change, in words [4]: without body weight loss; also recorded: no significant change in the body weight | plasma concentration of compound 7 after 5 min, in words ([6]; i.p. 50 mg/kg): below the detection limit | plasma concentration of 5-FU after 2 h, in words ([6]; i.p. injection): undetectable | T. of 5-FU ([6]; i.p. injection): 45 min | time within which 5-FU released from compound 7 was detected in blood ([6]; i.v. 50 mg/kg): ≤ 2 h | plasma concentration of compound 7 after 30 min, in words ([6]; i.v. 50 mg/kg, lower detection limit=0.003 μg/mL, detectable again after 45 min and 4 h): undetectable | organ distribution of the compound, in words ([7]; 50 mg/kg): distributed in the stomach, colon, heart, and liver | organ distribution of 5-FU, in words [7]: detected mainly in colon, with small amounts in the kidney and stomach

CCc1c2c(nc3ccc(OC(=O)N4CCC(N5CCCCC5)CC4)cc13)-c1cc3c(c(=O)n1C2)COC(=O)[C@]3(O)CC [Irinotecan (39), irinotecan, reference compound]
IC50 (HT-29; Homo sapiens, HT-29, 48 h, read-out: IC50 HT-29): 8.51 ± 1.86 µM | IC50 (HT-29; [9]): 6.44 ± 0.3 µM | IC50 (HT-29; [10]): 5.61 ± 0.11 µM | IC50 (HCT-116; Homo sapiens, HCT-116, read-out: IC50 HCT-116 5 mM GSH, 72 h, prepared in DMA, 5 mM GSH): 0.32 ± 0.02 µM | IC50 (HCT-116; Homo sapiens, HCT-116, 48 h, prepared in DMSO, read-out: IC50 HCT-116): 3.69 ± 0.24 µM | IC50 (HCT-116; Homo sapiens, HCT-116, 72 h, prepared in DMA, w/o GSH, read-out: IC50 HCT-116 w/o GSH): 0.36 ± 0.01 µM | IC50 ([5]; Homo sapiens, HCT-116 and HT-29, over Tables 1 to 3, read-out: IC50 in CRC cells): 0.3 to 8.5 µM | response rate ([8]; phase II, single-agent, patients resistant to fluorouracil): about 27%

O=c1[nH]cc(F)c(=O)[nH]1 [5-FU, 5-fluorouracil, reference compound]
IC50 (NHDF): 70.4 ± 7.2 µM | reduction of tumor volume [2, 12]: 33% | loss of body weight ([4]; free 5-FU 50 mg/kg i.p., after injection): about 10% | T. of 5-FU ([6]; i.p. injection): 10 min | mean response rate of patients ([8]; 5-FU-based chemotherapy): approximately 23% | organ distribution of 5-FU, in words [7]: distributed in stomach, spleen, and kidney

O=C(CCc1cn(CCOCCOCCOc2cc(O)c(C(=O)CCc3ccc(O)cc3)c(O)c2)nn1)OCn1cc(F)c(=O)[nH]c1=O [Compound 9]
IC50 (HT-29; [10]): 85 ± 9.1 µM | IC50 (HCT-116; [11]): > 100 µM | release of 5-FU, in words ([1]; 5 mM GSH, after 48 h): Little 5-FU was released | half-life [3]: 3.6 h | cytotoxicity against CRC cell lines, in words [5]: poorly cytotoxic | pH stability, in words (pH stability analysis; pH 4-5): stable | pH stability, in words (pH stability analysis; pH >7): prone to fully degrade
